Columns and labels:
Type in all cases: cell-based, murine (C57BL/6 mice)
[1] = tested on: iNOS-derived NO production in murine peritoneal macrophages; test: Nitrite (NO) production in LPS-stimulated macrophages, Griess reaction; details: Mus musculus, Peritoneal macrophage; pre-treated 12 h, LPS 1 μg/mL 18 h
Protocol: The expression of pro-inflammatory enzymes, including COX-2 and iNOS, plays an important role in immune-activated macrophages via the production of COX-2-derived PGE2 and iNOS-derived NO [20, 21]. To investigate the effects of compounds on iNOS-derived NO and COX-2-derived PGE2 production, and iNOS and COX-2 expression in LPS-stimulated macrophages, murine peritoneal macrophages were stimulated with LPS (1 μg/mL) for 18 h in the presence or absence of non-cytotoxic concentrations of compounds 1–3 (Figure S1). […] The finding that penstyrylpyrone (1) suppressed LPS-induced pro-inflammatory mediators, such as NO, PGE2, iNOS, and COX-2, led further investigation of the effects of penstyrylpyrone (1) on LPS-induced TNF-α and IL-1β production, which are other pro-inflammatory mediators.
(§1) C57BL/6 mice were purchased from Orient Bio Co. (Sungnam, Kyung-Kido, Korea). TG-elicited peritoneal macrophages were harvested four days after intraperitoneal (i.p.) injection of 3 mL of TG [37]. Peritoneal lavage was performed using 8 mL of Hanks’ Balanced Salt Solution containing 10 U/mL heparin. The cells were distributed in Roswell Park Memorial Institute medium (RPMI) supplemented with 10% heat-inactivated FBS, in 6-well tissue culture plates (5 × 10^6 cells/mL).
The production of nitrite, a stable end product of NO oxidation, was used as a measure of iNOS activity. The nitrite present in the conditioned medium was determined using a method based on the Griess reaction.

iNOS = test: Western blotting of iNOS protein expression in LPS-stimulated macrophages; details: pre-treatment 12 h, LPS 1 μg/mL 18 h
Protocol: (§2) Figure 3 The effects of penstyrylpyrone (1) (A), anhydrofulvic acid (2) (B), and citromycetin (3) (C) on the protein expression of iNOS and COX-2 in murine peritoneal macrophages stimulated with LPS. Murine peritoneal macrophages were pre-treated for 12 h at the indicated compound concentrations and stimulated for 18 h with LPS (1 μg/mL). Western blotting analysis was performed, and the representative blots of three independent experiments are shown.
as §1
(§3) Western blotting analysis was performed by lysing the cells in 20 mM Tris-HCl buffer (pH 7.4) containing a protease inhibitor mixture (0.1 mM PMSF, 5 mg/mL aprotinin, 5 mg/mL pepstatin A, and 1 mg/mL chymostatin). The protein concentration was determined using a Lowry protein assay kit (P5626; Sigma Chemical Co., St. Louis, MO, USA). […]

COX-2 = test: Western blotting of COX-2 protein expression in LPS-stimulated macrophages; details: pre-treatment 12 h, LPS 1 μg/mL 18 h
Protocol: as §2, §1, §3

IκB-α = test: Western blotting of IκB-α phosphorylation and degradation in LPS-stimulated macrophages; details: pre-treatment 12 h, 5 to 40 μM, LPS 1 μg/mL 1 h
Protocol: (§4) Figure 5 The effects of penstyrylpyrone (1) on the protein expression level of IκB-α phosphorylation, degradation of IκB-α (A), NF-κB translocation (B), and NF-κB DNA binding activity (C) in murine peritoneal macrophages. Murine peritoneal macrophages were pre-treated for 12 h at the indicated concentrations of penstyrylpyrone (1), and stimulated for 1 h with LPS (1 μg/mL). Western blotting analysis of IκB-α and p-IκB-α in the cytoplasm and NF-κB in the nucleus (A, B) were performed. A commercially available NF-κB ELISA (Active Motif) was used to test the nuclear extracts and to determine the degree of NF-κB binding (C). […]
(§5) Murine peritoneal macrophages were homogenized (1:20, w:v) in PER-Mammalian Protein Extraction buffer (Pierce Biotechnology, Rockford, IL, USA) containing freshly added protease inhibitor cocktail I (EMD Biosciences, San Diego, CA, USA) and 1 mM phenylmethylsulfonyl fluoride (PMSF). […] The protein concentration was determined using the bicinchoninic acid (BCA) protein assay kit.
as §3

NF-κB (p65) = test: Western blotting of NF-κB (p65) nuclear translocation in LPS-stimulated macrophages; details: pre-treatment 12 h, LPS 1 μg/mL 1 h
Protocol: as §4, §5, §3

NF-κB = test: DNA-binding activity of NF-κB in nuclear extracts (TransAM kit); details: pre-treatment 12 h, LPS 1 μg/mL 1 h
Protocol: Figure 5 The effects of penstyrylpyrone (1) on the protein expression level of IκB-α phosphorylation, degradation of IκB-α (A), NF-κB translocation (B), and NF-κB DNA binding activity (C) in murine peritoneal macrophages. Murine peritoneal macrophages were pre-treated for 12 h at the indicated concentrations of penstyrylpyrone (1), and stimulated for 1 h with LPS (1 μg/mL). Western blotting analysis of IκB-α and p-IκB-α in the cytoplasm and NF-κB in the nucleus (A, B) were performed. A commercially available NF-κB ELISA (Active Motif) was used to test the nuclear extracts and to determine the degree of NF-κB binding (C). The data represent the mean values ± SD of three experiments. *p < 0.05 compared with the group treated with LPS.
C57BL/6 mice were purchased from Orient Bio Co. (Sungnam, Kyung-Kido, Korea). […]
as §5
The DNA-binding activity of NF-κB in the nuclear extracts was measured using the TransAM kit (Active Motif, Carlsbad, CA, USA) according to the manufacturer’s instructions.

[2] = tested on: murine peritoneal macrophages; test: Cell viability assay (MTT); parameters: dose or concentration left out as unconfirmed

Structure (SMILES): COc1cc(/C=C/c2ccccc2)oc(=O)c1C [Penstyrylpyrone (1), penstyrylpyrone]
- IC50 [1]: 12.3 µM
- iNOS expression (iNOS): decreased
- COX-2 expression (COX-2): decreased
- LPS-induced phosphorylation and degradation of IκB-α (IκB-α): markedly inhibited
- Nuclear p65 protein levels (NF-κB translocation) (NF-κB (p65)): gradually inhibited
- NF-κB DNA-binding activity (NF-κB): impaired this activity in a concentration-dependent manner
- Cytotoxicity (cell viability) [2]: non-cytotoxic

— article PMC3705412, “PTP1B Inhibitory and Anti-Inflammatory Effects of Secondary Metabolites Isolated from the Marine-Derived Fungus Penicillium sp. JF-55” (Marine Drugs, 2013)
